Molecular target: T1, DLK (Homo sapiens, UniProt Q12852)
T1 sequence (Q12852 1-520): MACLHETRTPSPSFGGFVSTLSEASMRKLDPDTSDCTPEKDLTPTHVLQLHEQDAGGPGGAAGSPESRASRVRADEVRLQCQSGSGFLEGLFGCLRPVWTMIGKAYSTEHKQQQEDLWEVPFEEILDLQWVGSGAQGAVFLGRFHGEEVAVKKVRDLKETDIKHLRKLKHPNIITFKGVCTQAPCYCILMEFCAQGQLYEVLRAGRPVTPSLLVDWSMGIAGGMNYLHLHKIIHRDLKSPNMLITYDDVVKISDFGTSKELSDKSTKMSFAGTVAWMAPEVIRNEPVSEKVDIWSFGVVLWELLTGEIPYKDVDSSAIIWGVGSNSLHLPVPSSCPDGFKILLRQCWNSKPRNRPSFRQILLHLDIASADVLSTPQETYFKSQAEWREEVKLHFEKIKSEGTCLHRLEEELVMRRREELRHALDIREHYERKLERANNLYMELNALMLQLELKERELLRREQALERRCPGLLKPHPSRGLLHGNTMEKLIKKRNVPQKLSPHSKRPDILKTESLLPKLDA
Conditions: read-out: DLK (Ki) μM; TR-FRET; 5 nM GST-tagged DLK (catalytic domain aa 1-520), 40 nM HIS-MKK4 K131M substrate, 30 μM ATP, 60 minutes

Row | Ki [µM] | Structure (SMILES)
1 | 0.035 | FC(F)(F)c1c[nH]c2ncc(-c3cc(C4CCOC4)n(C4CCOC4)n3)cc12 (centres unmarked) [Compound 15, 5-(1,5-bis(tetrahydrofuran-3-yl)-1H-pyrazol-3-yl)-3-(trifluoromethyl)-1H-pyrrolo[2,3-b]pyridine]
2 | 0.013 | FC1(F)CCC(n2nc(-c3cnc4[nH]cc(C(F)(F)F)c4c3)cc2C2CCOC2)C1 (centres unmarked) [Compound 16, 5-(1-(3,3-difluorocyclopentyl)-5-(tetrahydrofuran-3-yl)-1H-pyrazol-3-yl)-3-(trifluoromethyl)-1H-pyrrolo[2,3-b]pyridine]
3 | 0.082 | Cc1c[nH]c2ncc(-c3cc(C4CCOC4)n(C4CC(F)(F)C4)n3)cc12 (centres unmarked) [Compound 19, 5-(1-(3,3-difluorocyclobutyl)-5-(tetrahydrofuran-3-yl)-1H-pyrazol-3-yl)-3-methyl-1H-pyrrolo[2,3-b]pyridine]
4 | 0.025 | CCc1c[nH]c2ncc(-c3cc(C4CCOC4)n(C4CC(F)(F)C4)n3)cc12 (centres unmarked) [Compound 20, 5-(1-(3,3-difluorocyclobutyl)-5-(tetra-hydrofuran-3-yl)-1H-pyrazol-3-yl)-3-ethyl-1H-pyrrolo[2,3-b]pyridine]
5 | 0.35 | Nc1ncc(-c2cc(C3CCOC3)n(C3CCC(F)(F)C3)n2)cc1Cl (centres unmarked) [Compound 23, 3-chloro-5-(1-(3,3-difluorocyclopent-yl)-5-(tetrahydrofuran-3-yl)-1H-pyra-zol-3-yl)pyridin-2-amine]
6 | 0.55 | Nc1ncc(-c2cc(C3CCOC3)n(C3CC(F)(F)C3)n2)cc1Cl (centres unmarked) [Compound 25, 3-chloro-5-(1-(3,3-difluorocyclobut-yl)-5-(tetrahydrofuran-3-yl)-1H-pyra-zol-3-yl)pyridin-2-amine]
7 | 0.1 | Cc1c[nH]c2ncc(-c3cc(C4CCOCC4)n(C4CC(F)(F)C4)n3)cc12 [Compound 35, 5-(1-(3,3-difluorocyclobutyl)-5-(tetra-hydro-2H-pyran-4-yl)-1H-pyrazol-3-yl)-3-methyl-1H-pyrrolo[2,3-b]pyri-dine]
8 | 0.058 | FC1(F)CC(n2nc(-c3cnc4[nH]cc(C(F)(F)F)c4c3)cc2C2CCOCC2)C1 [Compound 38, 5-(1-(3,3-difluroocyclobutyl)-5-(tetra-hydro-2H-pyran-4-yl)-1H-pyrazol-3-yl)-3-(trifluoromethyl)-1H-pyrrolo [2,3-b]pyridine]
9 | 0.46 | Nc1ncc(-c2cc(C3CCOCC3)n(C3CC(F)(F)C3)n2)cc1Cl [Compound 39, 3-chloro-5-(1-(3,3-difluorocyclobut-yl)-5-(tetrahydro-2H-pyran-4-yl)-1H-pyrazol-3-yl)pyridin-2-amine]
10 | 0.00017 | CC(C)n1nc(-c2cnc3[nH]cc(C(F)(F)F)c3c2)cc1C1CCN(C)CC1 [Compound 40, 5-(1-isopropyl-5-(1-methylpiperidin-4-yl)-1H-pyrazol-3-yl)-3-(trifluoro-methyl)-1H-pyrrolo[2,3-b]pyridine]
11 | 0.045 | CC(C)n1nc(-c2cnc(N)c(C(F)(F)F)c2)cc1C1CCN(C)CC1 [Compound 41, 5-(1-isopropyl-5-(1-methylpiperidin-4-yl)-1H-pyrazol-3-yl)-3-(trifluoromethyl)pyridin-2-amine]
12 | 0.25 | Cc1c[nH]c2ncc(-c3cc(C4CCN(C)C(=O)C4)n(C4CC(F)(F)C4)n3)cc12 (centres unmarked) [Compound 42, 4-(1-(3,3-difluorocyclobutyl)-3-(3-meth-yl-1H-pyrrolo[2,3-b]pyridin-5-yl)-1H-pyrazol-5-yl)-1-methylpiperidin-2-one]
13 | 0.06 | CN1CCC(c2cc(-c3cnc(N)c(Cl)c3)nn2C2CC(F)(F)C2)CC1=O (centres unmarked) [Compound 43, 4-(3-(6-amino-5-chloropyridin-3-yl)-1-(3,3-difluorocyclobutyl)-1H-pyra-zol-5-yl)-1-methylpiperidin-2-one]
14 | 0.14 | CN1CCC(c2cc(-c3cnc4[nH]cc(C(F)(F)F)c4c3)nn2C2CC(F)(F)C2)CC1=O (centres unmarked) [Compound 45, 4-(1-(3,3-difluorocyclobutyl)-3-(3-(tri-fluoromethyl)-1H-pyrrolo[2,3-b]pyri-din-5-yl)-1H-pyrazol-5-yl)-1-meth-ylpiperidin-2-one]
15 | 0.028 | CC(C)n1nc(-c2cnc3[nH]cc(C#N)c3c2)cc1C1CCN(CC(F)(F)F)CC1 [Compound 46, 5-(1-isopropyl-5-(1-(2,2,2-trifluoroethyl)piperidin-4-yl)-1H-pyrazol-3-yl)-1H-pyrrolo[2,3-b]pyridine-3-carbonitrile]
16 | 0.047 | CC(=O)N1CCC(c2cc(-c3cnc4[nH]cc(C)c4c3)nn2C)CC1 [Compound 47, 1-(4-(1-methyl-3-(3-methyl-1H-pyrro-lo[2,3-b]pyridin-5-yl)-1H-pyrazol-5-yl)piperidin-1-yl)ethanone]

Further lines, the compound ahead of its results:

Row | Structure (SMILES) | Ki [µM]
17 | CC(C)c1cc(-c2cnc3[nH]cc(C(F)(F)F)c3c2)nn1C1CN(C2COC2)C1 [Compound 1, 5-(5-isopropyl-1-(1-(oxetan-3-yl)azetidin-3-yl)-1H-pyrazol-3-yl)-3-(trifluoromethyl)-1H-pyrrolo[2,3-b]pyridine] | 0.034
18 | CC(C)n1nc(-c2cnc(N)c(C(F)(F)F)c2)cc1C(C)(C)O [Compound 2, 2-(3-(6-amino-5-(trifluoromethyl)py-ridin-3-yl)-1-isopropyl-1H-pyrazol-5-yl)propan-2-ol] | 0.11
19 | CC(C)n1nc(-c2cnc(N)c(OC(F)F)c2)cc1C(C)(C)O [Compound 3, 2-(3-(6-amino-5-(difluoromethoxy)pyridin-3-yl)-1-isopropyl-1H-pyrazol-5-yl)propan-2-ol] | 0.14
20 | CC(C)n1nc(-c2cnc(N)c(C(F)(F)F)c2)cc1C(C)(C)C#N [Compound 4, 2-(3-(6-amino-5-(trifluoromethyl)pyridin-3-yl)-1-isopropyl-1H-pyrazol-5-yl)-2-methylpropanenitrile] | 0.78
21 | CC(C)n1nc(-c2cnc(N)c(OC(F)(F)F)c2)cc1C(C)(C)C#N [Compound 6, 2-(3-(6-amino-5-(trifluoromethoxy)pyridin-3-yl)-1-isopropyl-1H-pyrazol-5-yl)-2-methylpropanenitrile] | 0.14
22 | CC(=O)N1CC(c2cc(-c3cnc4[nH]cc(C(F)(F)F)c4c3)nn2CC2CC2)C1 [Compound 8, 1-(3-(1-(cyclopropylmethyl)-3-(3-(trifluoromethyl)-1H-pyrrolo[2,3-b]pyridin-5-yl)-1H-pyrazol-5-yl)azetidin-1-yl)ethanone] | 0.01
23 | CC(=O)N1CC(c2cc(-c3cnc4[nH]cc(C)c4c3)nn2CC2CC2)C1 [Compound 9, 1-(3-(1-(cyclopropylmethyl)-3-(3-meth-yl-1H-pyrrolo[2,3-b]pyridin-5-yl)-1H-pyrazol-5-yl)azetidin-1-yl)ethan-one] | 0.076
24 | CC(=O)N1CC(c2cc(-c3cnc4[nH]cc(C(F)(F)F)c4c3)nn2C(C)C)C1 [Compound 10, 1-(3-(1-isopropyl-3-(3-(trifluorometh-yl)-1H-pyrrolo[2,3-b]pyridin-5-yl)-1H-pyrazol-5-yl)azetidin-1-yl)ethan-one] | 0.0064
25 | CC(=O)N1CC(c2cc(-c3cnc4[nH]cc(C(F)(F)F)c4c3)nn2C)C1 [Compound 11, 1-(3-(1-methyl-3-(3-(trifluoromethyl)-1H-pyrrolo[2,3-b]pyridin-5-yl)-1H-pyrazol-5-yl)azetidin-1-yl)ethanone] | 0.034
26 | CC(=O)N1CC(c2cc(-c3cnc4[nH]cc(C)c4c3)nn2C(C)C)C1 [Compound 12, 1-(3-(1-isopropyl-3-(3-methyl-1H-pyrrolo[2,3-b]pyridin-5-yl)-1H-pyrazol-5-yl)azetidin-1-yl)ethanone] | 0.026

From patent US10028942B2 (priority 2013, dated 2018)
